Legend:
[1] = tested on: GNSCs; test: Sphere-forming clonogenic assay of GNSCs; type: cell-based; settings: 4.5 µM and 9 µM, sphere forming conditions (data not shown)
Method: To further investigate whether BMT9 reduced stemness potential of the GNSCs, we performed a sphere-forming clonogenic assay. Cells were seeded on sphere forming conditions, that is 40,000 cells/ml without laminin coating. Cells were treated with BMT9 at 4.5 µM and 9 µM 24 h after seeding.

[2] = Maximum Tolerated Dose after intraperitoneal administration; settings: mouse, in vivo, ip; female C57BL/6 mice, single intraperitoneal dose, seven days
Method: The Maximum Tolerated Dose (MTD) and Pharmacokinetics (PK) of BMT9 were determined after intraperitoneal administration to female C57BL/6 (~25 g) mice.
C57BL/6 female mice (9-13 weeks in age) were administered intraperitoneally with a single dose of BMT9 at 35, 50, 75, 100 or 200 mg/Kg. Total of 3 animals were used for each independent serial sampling experiment. The compound was dissolved in an appropriate vehicle (Cremophor:EtOH:H20 1:1:8). Body weight, distress and survival were monitored 1, 2, 4 hours and 8 hours post-administration and every day during the whole observation period. The MTD was set on the dose below the first dose that caused severe loss of body weight (>20%) or death of one or more animals of a dose group seven days after treatment. The MTD of BMT9 was therefore set on about 140 mg/kg. The concentrations of BMT9 in plasma was determined at different times per duplicate using a previously validated analytical method. The compound was injected via i.p at 100 mg/kg. Total of 3 animals were used for each independent serial sampling experiment. Blood samples were collected at 5, 15, 30 min, 1, 4, 10, 24, and 48 hours from each animal via cardiac puncture; […] withdrawn at each time point. 25 microliters of blood sample were then used for quantitative bioanalysis by HPLC-MS/MS. […]

[3] = tested on: TAp73; test: Western blot of endogenous TAp73 protein in U373 and T98G glioblastoma cell lines; type: cell-based, human; settings: 72 h, BMT9 9 and 18 µM, TMZ 350 µM, BCNU 150 µM
Method: Next, we compared the effect of BMT9 and TMZ or BCNU treatments on endogenous TAp73 protein levels in U373 and T98G glioblastoma cell lines (Figure 2F and G). Cells were treated for 72 h either with BMT9 at 9 and 18 µM, or with TMZ and BCNU at the standard concentrations referred in other articles (350 µM and 150 µM, respectively). Protein extracts were obtained and analyzed by Western blot using a TAp73 specific antibody and GAPDH as a loading control. Densitometric quantification of the obtained blots are represented in Figure 2F and G (Y axis, ratio of TAp73/GAPDH band intensity and X axis, indicated treatments).

[4] = tested on: TAp73; test: Western blot of endogenous TAp73 protein in glioblastoma stem cells G144 and G179; type: cell-based, human; settings: G144 and G179, 72 h; BMT9 2.25 µM, TMZ 350 µM, BCNU 150 µM
Method: To specifically address BMT9 effect on endogenous TAp73 protein levels, we performed a Western blot analysis using an anti-TA-specific antibody. Cells were treated for 72 h either with a low dose of BMT9 (2.25 µM), or with TMZ and BCNU at the standard concentrations used in other articles (350 µM and 150 µM, respectively). Protein extracts were obtained and analyzed by Western blot (Figure 4B-C) and densitometric quantification of the autoradiographies was carried out. The ratio of TAp73/GAPDH band intensity was calculated and protein expression levels relative to non-treated (NT) cells were represented (Y axis).

[5] = tested on: G144 cells; test: 3D spheroid cell-invasion assay in Matrigel, G144; type: cell-based, human; settings: 24 h
Method: A hallmark of glioblastoma cell infiltration through a 3D environment is the extension of long, thin polarized membrane extensions that explore and penetrate the surrounding environment. The 3D spheroid cell-invasion model consists in generating cell spheroids by suspension culture that are subsequently embedded in a 3D matrix. G144 cells were seeded on non-adherent conditions (without laminin coating) at a cell concentration of 40,000 cells/ml. After 8 days, spheres were embedded in a 2:1 mixture of Matrigel and growth media. Matrigel mix was let to polymerize at 37°C for 30 minutes, and then it was covered with growth media. Migration was monitored by phase-contrast microscopy for 24 h and the area of each sphere at the initial and final time points was measured using the ImageJ software, in order to calculate the ratio between both areas (Figure 10D, Y axis).

[6] = tested on: T98G; test: MTT-based cytotoxicity assay, T98G; type: cell-based; settings: Homo sapiens, 72 h
Method: A dose-response analysis of BMT9 (concentrations ranging from 4.5 µM-18 µM), BCNU (from 150 µM-500 µM) and TMZ (350 µM-700 µM) was performed in two conventional glioblastoma cell lines (T98G, U373) and the GNS cell line G144 by MTT-based cytotoxicity assays (Figure 5A-D). Cells were seeded on p96-well plates and treated with the different compounds for 72 h. Then, the MTT reagent (3-(4,5-Dimethyl-2-thiazolyl)-2,5-diphenyl-2H-tetrazolium bromide diluted in PBS to a concentration of 1mg/ml), was added to each well to a final concentration of 0.33mg/ml, and incubated for 3 h at 37°C. After that, the media was removed, and formazan crystals were solubilized with DMSO. Absorbance was measured at 560 nm using a "Synergy HT" plate reader (Biotek). In the graphs, the Y axis represents the percentage of cell viability relative to non-treated cells. The IC50, when reached are marked by a rectangle. DMSO treatment had no effect on cell viability.

[7] = tested on: G144 R500; test: MTT assay, TMZ-resistant clone G144 R500; type: cell-based; settings: Homo sapiens, 72 hours
Excerpt: While the first line therapy of gliomas has proven its effectiveness and improved clinical outcomes, acquired chemoresistance to alkylating agents has been identified as a major cause of treatment failure (Sarkaria et al., 2008). In a murine model of GB, long-term treatment with subtoxic TMZ doses enriched the side population of cancer stem cells, increasing the tumor aggressiveness (Bleau et al., 2009). Thus, we generated TMZ-resistant G144-clones that were selected upon treatment with TMZ either at 500 µM or 700 µM for several months (R500 and R700, respectively). The obtained clones maintained CD133 stem marker expression (Figure 9A). We then analyzed BMT9 dose-dependent effect on cell viability, by MTT assay, comparing the resistant clones to parental cells.

[8] = tested on: invasiveness-related genes; test: qRT-PCR of invasiveness-related genes in G144 cells; type: cell-based, human; settings: G144, 4.5 µM, 72 h
Method: For expression analysis, G144 cells were treated with BMT9 (4.5 µM) and after 72 h mRNA was extracted and qRT-PCR was performed.

C=C1C2CCC(C)(C3COc4c(C)c(OC)c5c(c4C3O)C(O)OC5=O)C1CCC2(C)C (centres unmarked) [BMT9]
sphere generation [1]: reduce sphere generation in a dose dependent manner
MTD at 168 h [2]: ~140 mg/kg
endogenous TAp73 protein levels (TAp73/GAPDH) [3]: efficiently reduced endogenous TAp73 expression
endogenous TAp73 protein levels (TAp73/GAPDH) [4]: reduced effectively TAp73 expression
invasion of cells within the matrix surrounding the spheres [5]: significantly impaired the invasion of cells
IC50 [6]: > 9 µM
IC50 [7]: 4.5 to 9 µM
expression of a set of invasiveness-related genes [8]: downregulation of all the analyzed genes
